“Also recorded” adds a separate entry of the source. Read-outs that look alike come from different tables or passages of the source.
Experiments:
Type in all cases: cell-based
[1] = test system: colorectal cancer cell line HCT116; experiment: cells; details: Homo sapiens
Experimental: (§1) To confirm the in vitro growth inhibitory efficacy of the samples prepared in Examples 1 to 28 against human lung cancer and colorectal cancer cell lines, the experiments were performed as follows by applying the method described in the literature (Lee S K et al ([…]) Chem Biol Interact 115:215-28). A human lung cancer cell line A549 and a colorectal cancer cell line HCT116 were acquired from the American Type Culture Collection (ATCC, Manassas, Va., USA) and used.
(§2) A549, HCT116 cells were subcultured once or twice weekly under conditions of 37° C. and 5% CO2 using Roswell Park Memorial Institute (RPMI) Medium 1640 (RPMI 1640) containing 10% heat-inactivated Fetal Bovine Serum (FBS), 100 units/mL penicillin, 100 μg/mL streptomycin, and 250 ng/mL amphotericin B. All cells were thawed from liquid nitrogen, subcultured three times or more, and then used in the experiment.
(§3) The effects of the compounds obtained in Examples 1 to 28 on cell growth were measured by a sulforhodamine B (SRB) method (Lee et al (1998) Chem Biol Interact 115: 215-28).
(§4) Specifically, the human lung cancer and colon cancer cell lines used in the present invention were subcultured in a RPMI medium containing 10% FBS, 1% PSF, and the like, 10 μl of a sample dissolved in 10% DMSO and 190 μl (5×10^4 cells/ml) of the cell suspension were placed in each well of a 96-well plate. 190 μl of the cell suspension was placed in at least 16 wells, cultured for 30 minutes, and used as a negative control (zero-day control) before the experiment. The cultured cells were fixed with 10% trichloroacetic acid (TCA) and then stained with an SRB solution, the staining solution was dissolved with 10 mM Tris-base, and absorbance was measured at 515 nm. Using the cell culture in 10% DMSO as a control, cell viability according to the treatment with each test sample was measured using the following Equation 1. % Cell viability=(OD(sample)−OD(0-day))/(OD(10% DMSO)−OD(0-day))×100 [Equation 1]
(§5) When the control in which the sample was not treated was defined as 100%, the value of the sample treatment group was shown as a percentage with respect to the control, and each test sample treatment was determined by the mean value±SEM of the duplicate or triplicate test. The IC50 value is the concentration of the test sample for 50% viability.

[2] = test system: human lung cancer cell line A549; experiment: cells; details: Homo sapiens
Experimental: as §1, §2, §3, §4, §5

[3] = test system: human lung cancer and colorectal cancer cell lines; experiment: In vitro growth inhibition (SRB), summary over both cell lines; details: compared with control compound etoposide
Experimental: as §1, §2, §3, §4, §5

[4] = HCT-116, read-out: HCT116-LC50, Table 2, SRB, concentration for 50% viability
[5] = A549, read-out: A549-LC50, Table 2, SRB, concentration for 50% viability

Structure (SMILES) | CC50 [1, 4] | CC50 [2, 5] | cancer cell growth inhibitory activity compared to etoposide [3] | CC50 ([1]; HCT-116, read-out: HCT116-LC50) | CC50 ([2]; A549, read-out: A549-LC50)
O=C(NCC[Se][Se]CCNC(=O)/C(Cc1ccc(O)c(F)c1)=N/O)/C(Cc1ccc(O)c(F)c1)=N/O [SSM-3, (2E,2′E)-N,N′-(diselanediylbis(ethane-2,1-diyl))bis(3-(3-fluoro-4-hydroxyphenyl)-2-(hydroxyimino)propanamide)] | 50 nM | 60 nM | higher inhibitory activity than a control compound etoposide; also recorded: excellent cancer cell growth inhibitory potential even compared to etoposide | – | –
O=C(NCC[Se][Se]CCNC(=O)/C(Cc1ccccc1)=N/O)/C(Cc1ccccc1)=N/O [SSM-4, (2E,2′E)-N,N′-(diselanediylbis(ethane-2,1-diyl))bis(2-(hydroxyimino)-3-phenylpropanamide)] | – | – | higher inhibitory activity than a control compound etoposide; also recorded: excellent cancer cell growth inhibitory potential even compared to etoposide | 90 nM | 80 nM
CCOc1ccc(C/C(=N\O)C(=O)NCC[Se][Se]CCNC(=O)/C(Cc2ccc(OCC)cc2)=N/O)cc1 [SSM-10, (2E,2′E)-N,N′-(diselanediylbis(ethane-2,1-diyl))bis(3-(4-ethoxyphenyl)-2-(hydroxyimino)propanamide)] | 70 nM | 50 nM | higher inhibitory activity than a control compound etoposide; also recorded: excellent cancer cell growth inhibitory potential even compared to etoposide | – | –
O=C(NCC[Se][Se]CCNC(=O)/C(Cc1ccc([N+](=O)[O-])cc1)=N/O)/C(Cc1ccc([N+](=O)[O-])cc1)=N/O [SSM-12, (2E,2′E)-N,N′-(diselanediylbis(ethane-2,1-diyl))bis(2-(hydroxyimino)-3-(4-nitrophenyl)propanamide)] | – | – | higher inhibitory activity than a control compound etoposide; also recorded: excellent cancer cell growth inhibitory potential even compared to etoposide | 90 nM | 90 nM

Source: patent publication US11629123B2, “Selenopsammaplin A and derivative thereof, preparation method therefor, and composition for preventing and treating cancer, containing same as active ingredients” (priority 2017, dated 2023)
